Entries after “also recorded” stand apart in the source; their conditions may differ. Where no end group is shown, it is not given here.
How the values were obtained:
INS-1 832/13 cells [1] = experiment: Actin staining (phalloidin) in INS-1 832/13 cells; assay type: cell-based, rat; conditions: 10^-7M CARTp55-102, 24 h, n = 6
Procedure: INS-1 832/13 cells (a rat insulinoma cell line of male origin) were cultured in RPMI 1640 medium (Sigma Aldrich, St. Louis, MO) containing 2 g/L D-glucose, supplemented with 10% FBS, 10 mM HEPES, 1 mM sodium pyruvate and 50 μM β-mercaptoethanol (Sigma Aldrich) in a humidified atmosphere (37°C, 5% CO2). For investigations of actin architecture, INS-1 832/13 cells were seeded in 8-well chamber slides (Sarstedt) and transfected as described below before being fixed, permeabilized and stained with phalloidin (Phalloidin-iFluor488, Abcam, Cambridge, UK) for 60 min. Nuclei were counter-stained with DAPI and F-actin was visualized using Phalloidin-iFluor488 (Abcam). Phalloidin staining was performed for 60 min at a dilution of 1:1000 (in PBS +0.25% Triton X-100). Phalloidin intensity was quantified using the ImageJ software.

KATO III cells = conditions: KATO III cells, RNA interference of Gpr160; cited from earlier work
Description: When studying neuropathic pain, Yosten et al.[11] found GPR160 to be necessary for CARTp-mediated cell activation in cell culture. […] Information on GPR160 is scarce, but it has been reported to be a potential marker for prostate cancer,[24] where it is involved in apoptosis and cell-cycle arrest.[25] […] Recently, the notion of GPR160 being the ...

INS-1 832/13 cells [2] = experiment: Whole-cell capacitance measurement (exocytosis), patch-clamp; assay type: cell-based, rat
Procedure: Whole-cell capacitance measurement was performed in INS-1 832/13 cells using HEKA EPC10 patch-clamp amplifiers with the software Suite Pulse + X-Chart Extension (version 8.6 or later; HEKA, Lambrecht-Pfalz, Germany) as previously described.[40] Briefly, INS-1 832/13 cells were seeded in Nunc plastic petri dishes one day prior to the measurement. The intracellular pipette solution contained 125 mM Cs-glutamate, 10 mM CsCl, 10 mM NaCl, 1 mM MgCl2, 5 mM HEPES, 3 mM Mg-ATP, 0.1 mM cAMP and 0.05 mM EGTA (pH 7.2 with CsOH). The perfusing extracellular solution was composed of 118 mM NaCl, 20 mM tetraethylammonium chloride, 5.6 mM KCl, 2.6 mM CaCl2, 1.2 mM MgCl2, 5 mM HEPES and 5 mM glucose (pH 7.4), and the temperature was maintained at 32°C.

GPR162 = experiment: Co-immunoprecipitation of CART and GPR162 in INS-1 832/13 cells; assay type: binding, rat; conditions: 10^-7M CARTp55-102, 30 min at 4°C, BS3 cross-link, precipitation with CART antibody, GPR162 blot; n = 3 biological replicates
Procedure: INS-1 832/13 cell lysates were incubated with 10^−7M CARTp55-102 for 30 min at 4°C and then cross-linked with 1 mM BS[3] for 30 min at room temperature, then precipitated using biotin-labelled CART antibody (code H003-62, dilution 1:5000, Phoenix Pharmaceuticals) bound to streptavidin-coated magnetic Dynabeads (Thermo Fisher). Cells lysates were then washed five times in ice-cold PBS and membrane proteins were extracted using MemPER Plus (Thermo Scientific). Protein concentration was then measured using BCA assay (BioRad, Hercules, CA) and 20 μg loaded on a 10% Mini-PROTEAN TGX Stain-Free gel (BioRad). After electrophoresis (200 V for 40 min) and transfer, the PVDF membrane was blocked in TBS-T with 5% fat free dry milk. Primary antibody (anti-rabbit GPR162, code TA331838, 1:100 dilution, Origene, Rockville, MD) was dissolved in 1XTBS-T with 5% BSA (overnight at 4°C). Secondary antibody (anti-rabbit IgG; 1:2500 dilution) was diluted in 1XTBS-T with 5% dry milk. All wash steps were for 10 min in 1XTBS-T.

AtT20 = conditions: exogenous CART; cited from earlier work
Description: (§1) GPR162 was identified as the most CART-affected orphan receptor in INS-1 832/13 cells. […] By showing that CART binds to GPR162 and that biological effects of CART are reduced or ablated after Gpr162 KD, we propose that GPR162 acts as a CART receptor in beta cells. We also established expression of GPR162 in a majority of human and mouse beta cells. Moderate GPR162 immunoreactivity was evident across the cytoplasm and more intense immunoreact ...

INS-1 832/13 cells [3] = conditions: cited from earlier work
Description: as §1

rats = conditions: cited from earlier work
Description: However, much earlier, a fragment of the CART peptide was identified in extracts of sheep hypothalamus.[2] CART was later found to be expressed also in pancreatic islet cells and in nerve fibers innervating the islets.[3]^,[4]^,[5] […] Since then, multiple biological effects of CART have been established.[4]^,[7] Among them is the effect of CART on islet hormone secretion fr ... || When studying neuropathic pain, Yosten et al.[11] found GPR160 to be necessary for CARTp-mediated cell activation in cell culture. […] Information on GPR160 is scarce, but it has been reported to be a potential marker for prostate cancer,[24] where it is involved in apoptosis and cell-cycle arrest.[25] […] Recently, the notion of GPR160 being the ... || (+ 1 further places)

AtT20 cells = conditions: cited from earlier work
Description: However, much earlier, a fragment of the CART peptide was identified in extracts of sheep hypothalamus.[2] CART was later found to be expressed also in pancreatic islet cells and in nerve fibers innervating the islets.[3]^,[4]^,[5] […] Since then, multiple biological effects of CART have been established.[4]^,[7] Among them is the effect of CART on islet hormone secretion fr ...

With “CARTp55-102: Rat, mouse CARTp55-102 (Phoenix Pharmaceuticals, Cat#003-62); human form Cat#003-60; cocaine- and amphetamine-regulated transcript peptide (IPIYEKKYGQVPMCDAGEQCAVRKGARIGKLCDCPRGTSCNSFLLKCL; ends and bridges not checked; cysteine pairing not given here)” the “Effect of CARTp on actin staining in Gpr162 KD cells” value (INS-1 832/13 cells [1]; listed as CART) was “near-complete abolishment”, the “Effect of CARTp on actin staining in Gpr162 KD cells” value (INS-1 832/13 cells [1]; listed as CARTp) was “without effect; also recorded: lost in Gpr162 KD cells” and the “Increase in actin staining” value (INS-1 832/13 cells [1]; control cells, phalloidin) was “approximately 2 -fold”. The “c-FOS expression after Gpr160 RNA interference” value (KATO III cells) was “RNA interference of Gpr160 prevented CART from activating c-FOS expression”, the “CART-induced increase in capacitance / exocytosis after Gpr162 KD” value (INS-1 832/13 cells [2]; Gpr162 KD cells, 10^-7M CARTp55-102 1 h, n = 13-14 cells) was “abolished; also recorded: near-complete abolishment” and the Increase in capacitance (INS-1 832/13 cells [2]; control cells, 10^-7M CARTp55-102 for 1 h, 5 mM glucose, 32°C, n = 17 cells) was “approximately 1.3 -fold”. For the same substance, the “Co-immunoprecipitated GPR162” value (GPR162) was “stronger binding for GPR162 in the CARTp-treated cells than the binding observed in control cells”, the “Activation of AtT20” value (AtT20) was “capable of activating AtT20” and the cAMP (INS-1 832/13 cells [3]) was “increase cAMP”. The “Anorexigenic effects of CART on meal microstructure after Gpr160 knockdown” value (rats; AAV-mediated knockdown of Gpr160 in dorsal vagal complex, rat) was “partially attenuates the anorexigenic effects of CART on meal microstructure”, the Anorexigenic effect (rats) was “anorexigenic effects” and the “Displacement of radiolabeled CART” value (AtT20 cells) was “radiolabeled CART to be displaced by CARTp55-102”.

— paper PMC10709007, “GPR162 is a beta cell CART receptor” (iScience, 2023)
